Measurements from ChEMBL document CHEMBL4616710, “Discovery of a Potent Anticancer Agent PVHD303 with in Vivo Activity” (ACS Med Chem Lett, 2020).

Experiments:
A549 [1] = assay: Antiproliferative activity against human A549 cells assessed as cell growth inhibition incubated for 72 hrs by CellTiter96 Aqueous one solution cell proliferation assay; format: functional, cell-based; settings: A549, 72 h
HeLa [2] = assay: Antimitotic activity against human HeLa cells assessed as proportion of cells with bipolar spindles at 4 nM measured after 16 to 18 hrs by DAPI-staining based fluorescence microscopy analysis relative to control; format: functional
HeLa [3] = assay: Antimitotic activity against human HeLa cells assessed as proportion of cells with bipolar spindles at 8 nM measured after 16 to 18 hrs by DAPI-staining based fluorescence microscopy analysis relative to control; format: functional
HeLa [4] = assay: Antimitotic activity against human HeLa cells assessed as proportion of cells with bipolar spindles at 12 nM measured after 16 to 18 hrs by DAPI-staining based fluorescence microscopy analysis relative to control; format: functional
HeLa [5] = assay: Antimitotic activity against human HeLa cells assessed as proportion of cells with bipolar spindles at 16 nM measured after 16 to 18 hrs by DAPI-staining based fluorescence microscopy analysis relative to control; format: functional
HeLa [6] = assay: Antimitotic activity against human HeLa cells assessed as proportion of cells with irregular spindles at 4 nM measured after 16 to 18 hrs by DAPI-staining based fluorescence microscopy analysis relative to control; format: functional
HeLa [7] = assay: Antimitotic activity against human HeLa cells assessed as proportion of cells with irregular spindles at 8 nM measured after 16 to 18 hrs by DAPI-staining based fluorescence microscopy analysis relative to control; format: functional
HeLa [8] = assay: Antimitotic activity against human HeLa cells assessed as proportion of cells with irregular spindles at 12 nM measured after 16 to 18 hrs by DAPI-staining based fluorescence microscopy analysis relative to control; format: functional
HeLa [9] = assay: Antimitotic activity against human HeLa cells assessed as proportion of cells with irregular spindles at 16 nM measured after 16 to 18 hrs by DAPI-staining based fluorescence microscopy analysis relative to control; format: functional
HeLa [10] = assay: Antimitotic activity against human HeLa cells assessed as proportion of cells with microtubule disruption around the condensed chromosomes and unseparated centrosome at 4 nM measured after 16 to 18 hrs by anti-alpha-tubulin/anti-gamma-tubulin antibodies based immunostaining/DAPI-staining based fluorescence microscopy analysis relative to control; format: functional
HeLa [11] = assay: Antimitotic activity against human HeLa cells assessed as proportion of cells with microtubule disruption around the condensed chromosomes and unseparated centrosome at 8 nM measured after 16 to 18 hrs by anti-alpha-tubulin/anti-gamma-tubulin antibodies based immunostaining/DAPI-staining based fluorescence microscopy analysis relative to control; format: functional
HeLa [12] = assay: Antimitotic activity against human HeLa cells assessed as proportion of cells with microtubule disruption around the condensed chromosomes and unseparated centrosome at 12 nM measured after 16 to 18 hrs by anti-alpha-tubulin/anti-gamma-tubulin antibodies based immunostaining/DAPI-staining based fluorescence microscopy analysis relative to control; format: functional
HeLa [13] = assay: Antimitotic activity against human HeLa cells assessed as proportion of cells with microtubule disruption around the condensed chromosomes and unseparated centrosome at 16 nM measured after 16 to 18 hrs by anti-alpha-tubulin/anti-gamma-tubulin antibodies based immunostaining/DAPI-staining based fluorescence microscopy analysis relative to control; format: functional
HeLa [14] = assay: Antimitotic activity against human HeLa cells assessed as proportion of cells with diffuse alpha-tubulin at 4 nM measured after 16 to 18 hrs by DAPI-staining based fluorescence microscopy analysis relative to control; format: functional
HeLa [15] = assay: Antimitotic activity against human HeLa cells assessed as proportion of cells with diffuse alpha-tubulin at 8 nM measured after 16 to 18 hrs by DAPI-staining based fluorescence microscopy analysis relative to control; format: functional
HeLa [16] = assay: Antimitotic activity against human HeLa cells assessed as proportion of cells with diffuse alpha-tubulin at 12 nM measured after 16 to 18 hrs by DAPI-staining based fluorescence microscopy analysis relative to control; format: functional
HeLa [17] = assay: Antimitotic activity against human HeLa cells assessed as proportion of cells with diffuse alpha-tubulin at 16 nM measured after 16 to 18 hrs by DAPI-staining based fluorescence microscopy analysis relative to control; format: functional
HeLa [18] = assay: Antimitotic activity against human HeLa cells assessed as proportion of mitotic cells at 4 nM measured after 16 to 18 hrs by DAPI-staining based fluorescence microscopy analysis relative to control; format: functional
HeLa [19] = assay: Antimitotic activity against human HeLa cells assessed as proportion of mitotic cells at 8 nM measured after 16 to 18 hrs by DAPI-staining based fluorescence microscopy analysis relative to control; format: functional
HeLa [20] = assay: Antimitotic activity against human HeLa cells assessed as proportion of mitotic cells at 12 nM measured after 16 to 18 hrs by DAPI-staining based fluorescence microscopy analysis relative to control; format: functional
HeLa [21] = assay: Antimitotic activity against human HeLa cells assessed as proportion of mitotic cells at 16 nM measured after 16 to 18 hrs by DAPI-staining based fluorescence microscopy analysis relative to control; format: functional
HCT-116 [22] = assay: Antitumor activity against human HCT116 cells xenografted in BALB/c nude mouse assessed as tumor growth inhibition at 10 mg/kg, iv qd administered on day 1,3,5,8,10,12,15,17,19 and measured on day 22 by caliper method relative to control; format: functional; settings: HCT-116, iv, read-out: TGI
HCT-116 [23] = assay: Antitumor activity against human HCT116 cells xenografted in BALB/c nude mouse assessed as tumor growth inhibition at 20 mg/kg, iv qd administered on day 1,3,5,8,10,12,15,17,19 and measured on day 22 by caliper method relative to control; format: functional; settings: HCT-116, iv, read-out: TGI
HCT-116 [24] = assay: Antitumor activity against human HCT116 cells xenografted in iv dosed BALB/c nude mouse assessed as tumor growth inhibition administered once daily on day 1,3,5,8,10,12,15,17,19 and measured on day 22 by caliper method; format: functional, organism-based
HCT-116 [25] = assay: Antiproliferative activity against human HCT116 cells assessed as cell growth inhibition incubated for 72 hrs by CellTiter96 Aqueous one solution cell proliferation assay; format: functional, cell-based; settings: HCT-116, 72 h
A549 [26] = assay: Antiproliferative activity against human A549 cells assessed as cell growth inhibition; format: functional, cell-based

COc1ccc(C(C)(O)c2ncnc3ccc(OC)cc23)cc1 (centres undefined)
IC50 (A549 [1]): 5160 nM

COc1ccc(C(C)(O)c2nc(Br)nc3ccccc23)cc1 (centres undefined)
IC50 (A549 [1]): 50 nM

C/C=C\c1nc(C(C)(O)c2ccc(OC)cc2)c2ccccc2n1 (centres undefined)
IC50 (A549 [1]): 380 nM

COc1ccc(C(C)(O)c2nc(-c3ccc4c(c3)OCO4)nc3ccccc23)cc1 (centres undefined)
IC50 (A549 [1]): 1170 nM

COc1ccc(C(C)(O)c2nc(N3CCSCC3)nc3ccccc23)cc1 (centres undefined)
IC50 (A549 [1]): 2440 nM

COc1ccc(C(C)(O)c2nc(N3CCCC3)nc3ccccc23)cc1 (centres undefined)
IC50 (A549 [1]): 1260 nM

COc1ccc(C(C)(O)c2nc(-c3cn[nH]c3)nc3ccccc23)cc1 (centres undefined)
IC50 (A549 [1]): 254 nM

COc1ccc(C(C)(O)c2nc(-c3ccoc3)nc3ccccc23)cc1 (centres undefined)
IC50 (A549 [1]): 13 nM
Activity (HeLa [2]): 100%
Activity (HeLa [3]): 50%
Activity (HeLa [4]): 0%
Activity (HeLa [5]): 0%
Activity (HeLa [6]): 0%
Activity (HeLa [7]): 44.2%
Activity (HeLa [8]): 0%
Activity (HeLa [9]): 0%
Activity (HeLa [10]): 0%
Activity (HeLa [11]): 5.8%
Activity (HeLa [12]): 67%
Activity (HeLa [13]): 57%
Activity (HeLa [14]): 0%
Activity (HeLa [15]): 0%
Activity (HeLa [16]): 33%
Activity (HeLa [17]): 43%
Activity (HeLa [18]): 50%
Activity (HeLa [19]): 52%
Activity (HeLa [20]): 52%
Activity (HeLa [21]): 60%
inhibition in vivo at 10 mg/kg (HCT-116 [22]): 24.6%
inhibition in vivo at 20 mg/kg (HCT-116 [23]): 62.9%
TGI (HCT-116 [24]): Dose-dependent effect
IC50 (HCT-116 [25]): 13 nM

COc1ccc(C(C)(O)c2nc(-c3ccsc3C(C)=O)nc3ccccc23)cc1 (centres undefined)
IC50 (A549 [1]): 52 nM

COc1ccc(C(C)(O)c2ncnc3cc(OC)ccc23)cc1 (centres undefined)
IC50 (A549 [1]): > 25000 nM

COc1ccc(C(C)(O)c2ncnc3c(F)cccc23)cc1 (centres undefined)
IC50 (A549 [1]): 430 nM

COc1ccc(C(C)(O)c2nc(-c3ccc(Cl)s3)nc3ccccc23)cc1 (centres undefined)
IC50 (A549 [1]): 895 nM

COc1ccc(C(C)(O)c2nc(N3CC=CCC3)nc3ccccc23)cc1 (centres undefined)
IC50 (A549 [1]): 710 nM

COc1ccc(C(C)(O)c2nc(N3CC=CC3)nc3ccccc23)cc1 (centres undefined)
IC50 (A549 [1]): 220 nM

CNc1nc(C(C)(O)c2ccc(OC)cc2)c2ccccc2n1 (centres undefined)
IC50 (A549 [1]): 20 nM

COc1ccc(C(C)(O)c2nc(-c3c(C)noc3C)nc3ccccc23)cc1 (centres undefined)
IC50 (A549 [1]): 59 nM

COc1ccc(C(C)(O)c2nc(N)nc3ccccc23)cc1 (centres undefined)
IC50 (A549 [1]): 50 nM

COc1ccc(C(C)(O)c2nc(-n3cccc3)nc3ccccc23)cc1 (centres undefined)
IC50 (A549 [1]): 50 nM

COc1ccc(C(C)(O)c2nc(N3CCC(O)CC3)nc3ccccc23)cc1 (centres undefined)
IC50 (A549 [1]): 9320 nM

COc1ccc(C(C)(O)c2ncnc3c(OC)cccc23)cc1 (centres undefined)
IC50 (A549 [1]): 2100 nM

COc1ccc(C(C)(O)c2nc(N3CCSC3)nc3ccccc23)cc1 (centres undefined)
IC50 (A549 [1]): 580 nM

COc1ccc(C(C)(O)c2nc(-c3cccnc3)nc3ccccc23)cc1 (centres undefined)
IC50 (A549 [1]): 60 nM

COc1ccc(C(C)(O)c2ncnc3ccc(C)cc23)cc1 (centres undefined)
IC50 (A549 [1]): 1100 nM

COc1ccc(C(C)(O)c2ncnc3ccc(Cl)cc23)cc1 (centres undefined)
IC50 (A549 [1]): 80 nM

COc1ccc(C(C)(O)c2ncnc3c(C)cccc23)cc1 (centres undefined)
IC50 (A549 [1]): 1560 nM

COc1ccc(C(C)(O)c2nc(N3CCC(Cl)CC3)nc3ccccc23)cc1 (centres undefined)
IC50 (A549 [1]): 3670 nM

COc1ccc(C(C)(O)c2nc(N3CCOCC3)nc3ccccc23)cc1 (centres undefined)
IC50 (A549 [26]): 140 nM

COc1ccc(C(C)(O)c2nc(-c3ccco3)nc3ccccc23)cc1 (centres undefined)
IC50 (A549 [1]): 36 nM

C=Cc1nc(C(C)(O)c2ccc(OC)cc2)c2ccccc2n1 (centres undefined)
IC50 (A549 [1]): 27 nM

COc1ccc(C(C)(O)c2nc(-c3ccc(O)cc3)nc3ccccc23)cc1 (centres undefined)
IC50 (A549 [1]): 1410 nM

COc1ccc(C(C)(O)c2ncnc3c(Cl)cccc23)cc1 (centres undefined)
IC50 (A549 [1]): 240 nM

COc1ccc(C(C)(O)c2nc(N3CCC3)nc3ccccc23)cc1 (centres undefined)
IC50 (A549 [1]): 1100 nM

COc1ccc(C(C)(O)c2ncnc3cccc(F)c23)cc1 (centres undefined)
IC50 (A549 [1]): 12000 nM

COc1ccc(C(C)(O)c2nc(-c3ccc(F)cc3)nc3ccccc23)cc1 (centres undefined)
IC50 (A549 [1]): 48 nM

COC(=O)Nc1nc2cc(C(=O)c3cccs3)ccc2[nH]1 [NOCODAZOLE]
IC50 (A549 [1]): 272 nM

COc1ccc(C(C)(O)c2nc(-c3ccc(C#N)s3)nc3ccccc23)cc1 (centres undefined)
IC50 (A549 [1]): 13 nM

COc1ccc(C(C)(O)c2nc(N3CCC(F)(F)CC3)nc3ccccc23)cc1 (centres undefined)
IC50 (A549 [1]): 4910 nM

COc1ccc(C(C)(O)c2nc(-c3coc(C=O)c3)nc3ccccc23)cc1 (centres undefined)
IC50 (A549 [1]): 1010 nM

COc1ccc(C(C)(O)c2nc(-c3ccc(C(F)(F)F)cc3)nc3ccccc23)cc1 (centres undefined)
IC50 (A549 [1]): 1590 nM

COc1ccc(C(C)(O)c2ncnc3cc(C)ccc23)cc1 (centres undefined)
IC50 (A549 [1]): > 25000 nM

COc1ccc(C(C)(O)c2nc(-c3ccccc3O)nc3ccccc23)cc1 (centres undefined)
IC50 (A549 [1]): 223 nM

COc1ccc(C(C)(O)c2nc(N3CCC(F)CC3)nc3ccccc23)cc1 (centres undefined)
IC50 (A549 [1]): 760 nM

COc1ccc(C(C)(O)c2nc(N3CCC(OC)CC3)nc3ccccc23)cc1 (centres undefined)
IC50 (A549 [1]): 1220 nM

COc1ccc(C(C)(O)c2ncnc3cc(Cl)ccc23)cc1 (centres undefined)
IC50 (A549 [1]): 870 nM

COc1ccc(C(C)(O)c2nc(N3CC3)nc3ccccc23)cc1 (centres undefined)
IC50 (A549 [1]): 220 nM

COc1ccc(C(C)(O)c2ncnc3cc(F)ccc23)cc1 (centres undefined)
IC50 (A549 [1]): 4670 nM

COc1ccc(C(C)(O)c2ncnc3ccc(F)cc23)cc1 (centres undefined)
IC50 (A549 [1]): 350 nM

CC[C@]1(O)C[C@@H]2CN(CCc3c([nH]c4ccccc34)[C@@](C(=O)OC)(c3cc4c(cc3OC)N(C)[C@H]3[C@@](O)(C(=O)OC)[C@H](OC(C)=O)[C@]5(CC)C=CCN6CC[C@]43[C@@H]65)C2)C1 [VINBLASTINE]
IC50 (A549 [1]): 21 nM

COc1ccc(C(C)(O)c2nc(-c3cccs3)nc3ccccc23)cc1 (centres undefined)
IC50 (A549 [1]): 48 nM

COc1ccc(C(C)(O)c2nc(C3CC3)nc3ccccc23)cc1 (centres undefined)
IC50 (A549 [1]): 637 nM
